Measured values as given in publication PMC10894853, “Distribution and elimination kinetics of midazolam and metabolites after post-resuscitation care: a prospective observational study” (Scientific Reports, 2024).

Experiments:
[1] = Non-compartmental pharmacokinetics of midazolam and metabolites in plasma after discontinuation of MDZ infusion (LC-MS/MS); format: in vivo, human; details: for AUClast / AUCinf: relative concentration; for MRT inf: read-out: MRTinf (mean residence time); for MRT last: read-out: MRTlast (mean residence time)
Method: The PK parameters were obtained using a non-compartmental method with Phoenix WinNonlin (version 8.3.5; Certara, USA). […] The AUC from time 0 to infinity (AUCinf) was calculated as AUClast + Clast/λz, where Clast is the last measurable concentration and λz is the elimination rate constant. The mean residence time was calculated as […]. The estimated t1/2 was calculated from λz based on a previously reported equation[12].
All samples were immediately frozen and stored at –70 ℃ after centrifugation with 3,000 rpm for 10 min and then sent to the Nutrition Food Microbiology Laboratory at Chungnam National University (http://nfml.kr/) to determine the concentration of midazolam and its metabolites using liquid chromatography with tandem mass spectrometry analysis.
The sample preparation method was performed as previously described with some modifications. A 20 µL of sample was mixed with 180 µL of 80% methanol, followed by protein precipitation at 4 °C for 30 min. Subsequently, the supernatant was harvested and added to 1800 µL of distilled water. The pre-treated samples were loaded onto an Oasis HLB Vac RC cartridge (30 mg, 20 cc, Waters) that had been preconditioned with 6 mL of methanol and 6 mL of distilled water. The cartridge was washed with 6 mL distilled water and sequentially eluted with methanol (4 mL). The eluted samples were dried using an evaporator and resuspended with 0.2 mL of methanol for analysis.

[2] = cited from earlier work
[3] = Distribution (proportion of total relative concentration) of midazolam and metabolites in plasma after discontinuation of MDZ infusion; details: range over sampling times 0 to 24 h
Method: Serum samples for analyzing the plasma concentration of MDZ and its metabolites were obtained immediately (baseline) and at 4, 8, 12, and 24 h after the discontinuation of MDZ infusion.
The distribution of each compound was assessed by calculating its relative concentration as a ratio to the total sum of relative concentrations at each sampling time.

[4] = Awakening time and estimated midazolam concentration at awakening (simple linear regression); format: in vivo, human
Method: The primary outcome of this study was the distribution and elimination of MDZ and its metabolites over 24 h following the discontinuation of MDZ infusion after targeted temperature management (33 or 36℃). The secondary outcome was the association between the PK parameters and awakening time in a subgroup of patients who experienced neurological recovery.
We investigated the PK parameters for all compounds in each individual. […] Among these four patients, the mean of the estimated MDZ concentration was 16.8 ng/mL.
Figure 4 Simple linear regression analysis between the absolute concentration of midazolam and awakening time in the subgroup of awakened patients after post-resuscitation care (n = 7). […] The regression line (grid line) is followed the regression equation: Y = − 4.506 × X + 105.5.

[5] = after discontinuation of MDZ infusion, mean ± SD
[6] = plasma, 0 to 24 h after discontinuation of MDZ infusion, arithmetic mean ± SD
[7] = plasma, time 0 to infinity after discontinuation of MDZ infusion, mean ± SD
[8] = human, plasma, intravenous, after discontinuation of MDZ infusion, mean ± SD

Compound	MRTinf (mean residence time) [1, 5]	MRTlast (mean residence time) [1, 5]	t1/2 (elimination half-life) [1, 5]	AUClast [1, 6]	AUCinf [1, 7]	also measured
dihydroxymidazolam [Di-OH-MDZ]	21.0 ± 19.8 h	6.4 ± 2.5 h	14.5 ± 13.7 h	38.2 ± 49.8 h*ppm	56.2 ± 52.1 h*ppm	
di-hydroxymidazolam glucuronide [Di-OH-MDZ-Glu]	19.2 ± 13.0 h	6.4 ± 2.1 h	14.3 ± 9.6 h	187.4 ± 272.0 h*ppm	200.2 ± 307.1 h*ppm	
O=C(O)[C@H]1O[C@@H](OCc2ncc3n2-c2ccc(Cl)cc2C(c2ccccc2F)=NC3)[C@H](O)[C@@H](O)[C@@H]1O [1-OH-MDZ-Glu, 1-hydroxymidazolam glucuronide]	21.8 ± 26.8 h	6.8 ± 2.4 h	15.4 ± 19.9 h	9193.0 ± 13,958.4 h*ppm	14,027.8 ± 15,486.2 h*ppm	Pharmacological potency (sedation) [2]: < 6%; Potency for sedation [2]: 6–10%
Cc1ncc2n1-c1ccc(Cl)cc1C(c1ccccc1F)=NC2O (stereo not drawn) [4-OH-MDZ, 4-hydroxymidazolam]				172.5 ± 268.0 h*ppm	204.7 ± 294.8 h*ppm	MRT inf [1, 8]: 10 ± 4.8 h; MRT last [1, 8]: 5.6 ± 1.5 h; half-life ([1]; human, plasma, intravenous, after discontinuation of MDZ infusion, mean ± SD, read-out: t1/2 (elimination half-life) (converted)): 7.3 ± 3.8 h; Potency for sedation [2]: 0–2%
midazolam glucuronide [MDZ-Glu]	16.2 ± 24.1 h	5.8 ± 1.9 h				
OCc1ncc2n1-c1ccc(Cl)cc1C(c1ccccc1F)=NC2 [1-OH-MDZ, 1-hydroxymidazolam]	10.5 ± 5.2 h	6.0 ± 2.3 h	8.1 ± 4.9 h	1117.2 ± 1643.5 h*ppm	1419.1 ± 1845.5 h*ppm	Potency for sedation effect [2]: 60–63%; Proportion in total concentration [3]: 3.3–4.2%
Cc1ncc2n1-c1ccc(Cl)cc1C(c1ccccc1F)=NC2 [MDZ, midazolam]			6.2 ± 3.9 h			AUC(0-t) ([1]; human, intravenous, plasma, 0 to 24 h after discontinuation of MDZ infusion, absolute concentration, arithmetic mean ± SD): 1770 ± 2740 ng·h/mL; AUC(0-inf) ([1]; human, intravenous, plasma, time 0 to infinity after discontinuation of MDZ infusion, absolute concentration, mean ± SD): 2110 ± 3050 ng·h/mL; MRT inf [1, 8]: 8.2 ± 5.2 h; MRT last [1, 8]: 4.9 ± 1.6 h; Proportion in total concentration [3]: 21.2–38.4%; concentration at 16.6 h ([4]; human, plasma, intravenous, 0.15 mg/kg/h, from regression equation Y = − 4.506 × X + 105.5 at 16.6 h, awakened patients n = 7, read-out: Estimated concentration of midazolam at the subgroup awakening time): 30.7 ng/mL; Mean of the estimated MDZ concentration at awakening time ([4]; individual regression analysis, four out of seven awakened patients): 16.8 ng/mL; Awakening time in the subgroup after discontinuation of the midazolam infusion ([4]; subgroup of awakened patients n = 7): 16.6 h; Awaken time after discontinuation of midazolam intravenous infusion ([4]; subject #1): 9.6 h; Estimated midazolam concentration at awaken time ([4]; subject #1): 32.3 ng/mL; Awaken time after discontinuation of midazolam intravenous infusion ([4]; subject #2): 10.4 h; Estimated midazolam concentration at awaken time ([4]; subject #2): 20.8 ng/mL; Awaken time after discontinuation of midazolam intravenous infusion ([4]; subject #3): 9.6 h; Estimated midazolam concentration at awaken time ([4]; subject #3): 2.2 ng/mL; Awaken time after discontinuation of midazolam intravenous infusion ([4]; subject #4): 7.1 h; Estimated midazolam concentration at awaken time ([4]; subject #4): 11.9 ng/mL
Cc1ncc2n1-c1ccc(Cl)cc1C(c1ccccc1F)=NC2O[C@@H]1O[C@H](C(=O)O)[C@@H](O)[C@H](O)[C@H]1O (stereo partly drawn) [4-OH-MDZ-Glu, 4-hydroxymidazolam glucuronide]	7.9 ± 1.4 h	6.4 ± 2.2 h	5.4 ± 0.7 h	29.8 ± 24.4 h*ppm	33.3 ± 34.3 h*ppm	
